Source: patent US5817685A, “Anticonvulsive imidazoline-2,4-diones and process for making” (Arzneimittelwerk Dresden GmbH, priority 1996, dated 1998)
Like-named read-outs stand apart in the source and are kept apart here.

Columns and labels:
[1] = test system: pentetrazol-induced seizures; assay: s.c. pentetrazol (PTZ) test in mice; type: in vivo; settings: mouse
Procedure: (§1) They were tested for their anticonvulsive action in vivo after i.p. administration using the international customary mouse animal models described in Pharmac Weekblad, Sc. Ed.
The most commonly used chemoconvulsant is pentetrazol which can be used as a primary screen for anticonvulsant activity when dosages that produce hindlimb tonic extension are administered. A dose of pentetrazol that produces solely clonic seizures cannot be used as primary screen for new compounds, as phenytoin and carbamazepine have no effect on the blocking of clonic seizures. This test using pentetrazol to induce seizures, used as a primary screen of anticonvulsant activity is referred to in the results below as PEZ.
^2 PTZ = S. C. pentetrazol

clonic seizures = settings: dose of pentetrazol that produces solely clonic seizures; cited from earlier work
[2] = test system: electrically induced seizures (maximum electroshock); assay: maximum electroshock (MES) test in mice; type: in vivo, mouse; settings: ip
Procedure: as §1
Seizures can also be induced electrically for the identification of anticonvulsant activity. This test is referred to as the MES test for identifying CNS active drugs. A […] (60 Hz) electrical current for 0.2 s is delivered by a corneal electrode to mice. The current is four to five times as large as the threshold current needed to produce the tonic seizure. These specific parameters are used to identify compounds that prevent seizure spread, therapeutic agents for generalized tonic clonic seizures. Therapeutic agents for absence of seizures are undetected. However, when the current is lowered to […], compounds which modify both seizure spread and seizure threshold are identified.
^1 MES = maximum electroshock

[3] = test system: seizures (maximum electroshock model, pentetrazol test); assay: anticonvulsive action in mouse animal models (maximum electroshock and pentetrazol); type: in vivo; settings: comparison with known antiepileptics
Procedure: They were tested for their anticonvulsive action in vivo after i.p. administration using the international customary mouse animal models described in Pharmac Weekblad, Sc. Ed. The most commonly used chemoconvulsant is pentetrazol which can be used as a primary screen for anticonvulsant activity when dosages that produce hindlimb tonic extension are administered. […] This test using pentetrazol to induce seizures, used as a primary screen of anticonvulsant activity is referred to in the results below as PEZ. Seizures can also be induced electrically for the identification of anticonvulsant activity. […] A […] (60 Hz) electrical current for 0.2 s is delivered by a corneal electrode to mice. The current is four to five times as large as the threshold current needed to produce the tonic seizure. These specific parameters are used to identify compounds that prevent seizure spread, therapeutic agents for generalized tonic clonic seizures. […] However, when the current is lowered to […], compounds which modify both seizure spread and seizure threshold are identified.

[4] = octanol-H2O partition coefficient; type: physicochemical; settings: octanol-water, read-out: Log p (octanol-H2O) partition coeff.
in vivo = settings: mouse, ip
[5] = ip, i.p., read-out: Action % of Animals, PTZ
[6] = mouse, i.p., dose 100 mg/kg, read-out: Action % of Animals, MES
[7] = mouse, i.p., read-out: Action % of Animals, MES

Compound | responders at 100 mg/kg [1, 5] | responders at 100 mg/kg [2, 6] | logP [4] | responders at 30 mg/kg [2, 7] | other results
NC(=O)N1c2ccccc2C=Cc2ccccc21 [Carbamazepine, reference compound] | 0% | 100% | – | – | effect on the blocking of clonic seizures (clonic seizures): no effect; activity in maximum electroshock model or pentetrazol test [3]: active either in the maximum electroshock model, or in the pentetrazol test, but not in both
Cc1cc(Cl)ccc1N1CC(=O)NC1=O [Example 5, 1-(4-chloro-2-methylphenol)imidazoline-2,4-dione] | – | – | 0.86 | 100% | responders at 30 mg/kg [1, 5]: 100%
CCCC(CCC)C(=O)O [Valproate, reference compound] | 0% | – | – | – | responders at 100 mg/kg ([2]; Mus musculus, read-out: Action % of Animals, MES): 0%
O=C1CN(c2c(Cl)cccc2Cl)C(=O)N1 [Example 3, 1-(2,6-dichlorophenyl)imidazoline-2,4-dione] | 100% | – | 0.69 | 100% | –
O=C1CN(Cc2c(F)cccc2F)C(=O)N1 [Example 8, 1-(2,6-difluorobenzyl)imidazoline-2,4-dione] | 100% | 100% | 0.63 | – | TD50 (in vivo): 123 mg/kg; ED50 ([1]; sc): 50 mg/kg; ED50 ([2]; mouse): 36 mg/kg
O=C1CN(Cc2ccccc2C(F)(F)F)C(=O)N1 [Example 9] | – | – | – | 100% | responders at 30 mg/kg [1, 5]: 100%
O=C1CN(c2ccccc2Cl)C(=O)N1 [Example 1, 1-(2-chlorophenyl)imidazoline-2,4-dione] | – | – | 0.49 | – | responders at 300 mg/kg ([1]; ip, i.p., dose 300 mg/kg, read-out: Action % of Animals, PTZ): 0%; responders at 300 mg/kg ([2]; mouse, i.p., dose 300 mg/kg, read-out: Action % of Animals, MES): 100%
O=C1CN(Cc2ccccc2Cl)C(=O)N1 [Example 6, 1-(2-chlorobenzyl)imidazoline-2,4-dione] | – | – | 1.12 | 100% | responders at 30 mg/kg [1, 5]: 100%
O=C1CN(c2cccc(Cl)c2Cl)C(=O)N1 [Example 2, 1-(2,3-dichlorophenyl)imidazoline-2,4-dione] | 100% | 100% | 1.16 | – | –
O=C1CN(Cc2c(Cl)cccc2Cl)C(=O)N1 [Example 7, 1-(2,6-dichlorobenzyl)imidazoline-2,4-dione] | 100% | 100% | 1.44 | – | –
O=C1CN(c2ccccc2F)C(=O)N1 [Example 4, 1-(2-fluorophenyl)imidazoline-2,4-dione] | 100% | 100% | – | – | –
CCCC(CCC)C(=O)O [calcium valproate] | – | – | – | – | activity in maximum electroshock model or pentetrazol test [3]: active either in the maximum electroshock model, or in the pentetrazol test, but not in both
O=C1NC(=O)C(c2ccccc2)(c2ccccc2)N1 [phenytoin] | – | – | – | – | effect on the blocking of clonic seizures (clonic seizures): no effect
